Source: patent US20110269758A1, “NAPHTHYRIDINONES AS PROTEIN KINASE INHIBITORS” (MERCK PATENT GMBH, priority 2008, published 2011)

Legend:
[1] = tested on: tumor cells of various origins; details: cited from earlier work
[2] = tested on: cyclin-dependent kinases (CDKs) and Aurora kinases; details: cited from earlier work
Aurora Kinase B = Aurora Kinase B (Homo sapiens, UniProt Q96GD4); experiment: Biochemical enzyme assay for Aurora B activity (Caliper mobility shift); details: LC3000 or Desktop Profiler
Sequence of Aurora Kinase B (Q96GD4 whole entry): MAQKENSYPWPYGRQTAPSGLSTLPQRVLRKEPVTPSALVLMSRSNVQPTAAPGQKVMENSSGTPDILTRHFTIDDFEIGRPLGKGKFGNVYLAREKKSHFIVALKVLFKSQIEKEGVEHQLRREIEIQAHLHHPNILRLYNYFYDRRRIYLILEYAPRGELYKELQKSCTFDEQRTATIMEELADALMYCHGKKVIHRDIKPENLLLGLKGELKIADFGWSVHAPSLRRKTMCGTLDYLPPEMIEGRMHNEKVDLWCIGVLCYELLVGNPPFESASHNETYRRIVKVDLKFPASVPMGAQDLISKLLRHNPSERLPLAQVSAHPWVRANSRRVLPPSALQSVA
Procedure: (§1) The Aurora assays described here were performed on two Caliper Life Sciences systems, the LC3000 and the Desktop Profiler. These provide data on enzyme activity via measurement of the relative amounts of phosphorylated or unphosphorylated fluorescently labelled substrate peptide at the end of an enzymatic reaction. These different states of peptide are resolved by applying a potential difference across the sample. The presence of a charged phosphate group on the product (as opposed to the substrate) causes a different peptide mobility between the two peptides. This is visualized by excitation of a fluorescent label on the substrate and product peptides and represented as peaks within the analysis software.
(§2) The Desktop Profiler utilizes the same prinicipal as the LC 3000 for calculating percentage conversion of a substrate to product. Caliper Life Sciences provided proprietary flash frozen pre-made 384 well plates containing selected kinases. Each column in the 384 well plate contained a particular selected kinase. A second plate, the ‘substrate plate’ contained a mix of fluorescently labeled peptide substrate and ATP. These were arranged in columns so that transfer for substrate plate to enzyme plate provided the correct enzyme with the correct substrate/ATP concentration.
(§3) Compounds were added to a thawed enzyme plate in the desired format, in single concentrations. Reactions were initiated by transfer of the substrate/ATP mix from the substrate plate. The enzyme plate was incubated for 90 mins at 25° C. The reaction was stopped by addition of 70 μl of Stop Buffer (100 mM HEPES pH 7.5, 0.015% Brij-35, 10 mM EDTA (Sigma, E7889)).
Plates were read in a manner identical to that of the LC3000, and the ratio between substrate and product peaks provided the activity of the enzyme in that well. This was best represented by a plate heat map which colors each well by percent inhibition as compared to positive and negative controls (no inhibitors and no ATP respectively).

Aurora Kinase A = target: T1, Aurora Kinase A (Homo sapiens, UniProt O14965); experiment: Biochemical enzyme assay for Aurora A activity (Caliper LC3000 / Desktop Profiler mobility shift); details: GST-Aurora A, 15 μM ATP, 90 min at 25° C.; LC3000 or Desktop Profiler; read-out: Aurora Kinase A IC50
T1 construct: full length Aurora A (1-403 amino acids); purchased Carna Biosciences 05-101
T1 sequence (O14965 1-403): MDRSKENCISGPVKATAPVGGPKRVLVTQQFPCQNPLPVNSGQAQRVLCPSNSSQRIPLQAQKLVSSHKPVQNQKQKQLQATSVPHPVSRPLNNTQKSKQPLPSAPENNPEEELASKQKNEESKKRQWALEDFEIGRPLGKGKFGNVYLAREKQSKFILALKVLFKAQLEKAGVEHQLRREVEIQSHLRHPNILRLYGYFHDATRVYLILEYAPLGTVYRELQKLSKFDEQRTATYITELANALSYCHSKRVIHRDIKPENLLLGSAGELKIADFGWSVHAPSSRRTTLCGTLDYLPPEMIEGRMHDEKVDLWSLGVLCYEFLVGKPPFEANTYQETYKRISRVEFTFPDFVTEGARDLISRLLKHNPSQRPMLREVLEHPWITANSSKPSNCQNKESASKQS
Procedure: as §1
In order to measure inhibitor activity of Aurora A inhibitors in the Caliper Life Sciences LC3000, a TTP Mosquito liquid handling instrument was used to place 0.25 μl of an appropriate concentration of inhibitor in 100% DMSO (for a dose response curve calculation) into each well of a 384-well plate.
The reaction was incubated for 90 min at 25° C., and then stopped by the addition of 70 μl of Stop buffer (100 mM HEPES pH 7.5, 0.015% Brij-35, 10 mM EDTA (Sigma, E7889)).
The plate was read on a Caliper LC 3000 in an Off-Chip mobility shift assay format, using the following parameters for a 12-sipper chip: screening pressure −1.8 psi, upstream voltage −2700, downstream voltage −1000. These conditions cause unphosphorylated substrate and phosphorylated product peptide to resolve as separate peaks allowing direct measurement of percentage of conversion of substrate to product.
as §2, §3
Plates were read in a manner identical to that of the LC3000, and the ratio between substrate and product peaks provided the activity of the enzyme in that well.

[3] = tested on: leukemia, colon and pancreatic tumors; details: variety of in vivo xenograft models, well-tolerated doses; cited from earlier work
human tumor types = details: diverse range of human tumor types; cited from earlier work

Row | SMILES | IC50 (Aurora Kinase B) [nM] | IC50 (Aurora Kinase A) [nM] | other results
1 | Nc1nc(Nc2ccc(S(N)(=O)=O)cc2)nn1C(=O)c1c(F)cccc1F [JNJ-7706621] | – | – | proliferation of tumor cells [1]: selectively blocked proliferation; inhibition of CDKs and Aurora kinases [2]: potent inhibition
2 | O=C(Nc1ccc(Nc2ccnc3[nH]c(=O)cc(O)c23)cc1)c1ccc(F)cc1C(F)(F)F [Compound 91, 4-Fluoro-N-[4-(5-hydroxy-7-oxo-7,8-dihydro-[1,8]naphthyridin-4-ylamino)-phenyl]-2 trifluoromethyl-benzamide] | 1 to 300 | 1 to 300 | –
3 | Nc1ccc(NC(=O)c2ccc(C(F)(F)F)cc2)cc1 [Compound 6, N-(4-Aminophenyl)-4-trifluoromethyl-benzamide] | 1 to 300 | 1 to 300 | –
4 | O=C(Nc1ccc(Nc2ccnc3[nH]c(=O)cc(O)c23)cc1)c1ccccc1 [Compound 92, N-[4-(5-Hydroxy-7-oxo-7,8-dihydro-[1,8]naphthyridin-4-ylamino)-phenyl]-benzamide] | 1 to 300 | 1 to 300 | –
5 | Nc1ccc(NC(=O)c2c(F)cccc2F)cc1 [Compound 9, N-(4-Aminophenyl)-2,6-difluoro-benzamide] | 1 to 300 | 1 to 300 | –
6 | O=C(Nc1ccc(Nc2ccnc3[nH]c(=O)ccc23)cc1)c1cccc(C(F)(F)F)c1F [Compound 39, 2-Fluoro-3-Trifluoromethyl-N-(4-(7-oxo-7,8-dihydro-1,8-naphthyridin-4-yl-amino)phenyl)benzamide] | > 1000 | > 1000 | –
7 | Cc1cc(Nc2cc(N3CCN(C)CC3)nc(Sc3ccc(NC(=O)C4CC4)cc3)n2)n[nH]1 [VX-680] | – | – | inhibition of tumor growth [3]: profound inhibition of tumor growth; effect on cell-cycle progression and apoptosis (human tumor types): blocks cell-cycle progression and induces apoptosis
